Measurements reported in ChEMBL document CHEMBL1201862, “PubChem BioAssay data set” (2004).
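Briefly, cells in 96-well plates were exposed to five compound concentrations for 48 h, and endpoints were estimated by linear interpolation. GI50 marks 50% less growth.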 Active and inactive are the calls of the source. Cut-off read from the data, not from the text of the source: active = GI50 up to about 1.1 µM and inactive = higher.

Experiments:
Assay in all cases: NCI tumour cell line growth inhibition, 48 h
UACC-62 = system: UACC-62
HCT-15 = system: HCT-15
SW-620 = system: SW-620
SF-539 = system: SF-539
SF-268 = system: SF-268
KM12 = system: KM12
786-0 = system: 786-0
SNB-78 = system: SNB-78
KM-20L2 = system: KM-20L2
SF-295 = system: SF-295
SK-MEL-28 = system: SK-MEL-28
RXF 393 = system: RXF 393
OVCAR-4 = system: OVCAR-4
HL-60 = system: HL-60
M14 = system: M14
NCI-H522 = system: NCI-H522

CCC(CO)Nc1nc2c(c(=O)n(C)c(=O)n2C)n1CCO (configuration not stated)
GI50 (UACC-62): > 100 µM (inactive) | GI50 (HCT-15): > 100 µM | GI50 (SW-620): > 100 µM (inactive) | GI50 (SF-539): > 100 µM (inactive) | GI50 (SF-268): > 100 µM (inactive) | GI50 (KM12): > 100 µM (inactive) | GI50 (786-0): > 100 µM (inactive) | GI50 (SNB-78): 4.91 µM (inactive) | GI50 (KM-20L2): > 100 µM (inactive) | GI50 (SF-295): > 100 µM (inactive) | GI50 (SK-MEL-28): > 100 µM (inactive) | GI50 (RXF 393): > 100 µM (inactive)

CC(C#N)c1cn(S(=O)(=O)c2ccccc2)c2ccccc12 (configuration not stated)
GI50 (UACC-62): 55.1 µM (inactive) | GI50 (HCT-15): 53.6 µM | GI50 (SW-620): > 100 µM (inactive) | GI50 (SF-539): 68.1 µM (inactive) | GI50 (OVCAR-4): 34 µM (inactive) | GI50 (SF-268): 82.8 µM (inactive) | GI50 (KM12): 72.1 µM (inactive) | GI50 (HL-60): 26 µM (inactive) | GI50 (786-0): > 100 µM (inactive) | GI50 (M14): 33.7 µM (inactive) | GI50 (NCI-H522): 27.7 µM (inactive) | GI50 (KM-20L2): 67.8 µM (inactive) | GI50 (SF-295): 34.4 µM (inactive) | GI50 (SK-MEL-28): 60.7 µM (inactive)

O=C(Nc1cccc([N+](=O)[O-])c1)C(=O)C(C(=O)c1ccccc1-c1ccccc1)C1OC(=O)c2ccccc21 (configuration not stated)
GI50 (UACC-62): 19.5 µM (inactive) | GI50 (SW-620): 27.2 µM (inactive) | GI50 (SF-539): 14.5 µM (inactive) | GI50 (SF-268): 22.2 µM (inactive) | GI50 (KM12): 20 µM (inactive) | GI50 (HL-60): 16.2 µM (inactive) | GI50 (786-0): 18.7 µM (inactive) | GI50 (M14): 17.8 µM (inactive) | GI50 (NCI-H522): 11.4 µM (inactive) | GI50 (SNB-78): 23.2 µM (inactive) | GI50 (KM-20L2): 23.3 µM (inactive) | GI50 (SF-295): 22 µM (inactive) | GI50 (SK-MEL-28): 23.5 µM (inactive) | GI50 (RXF 393): 13.3 µM (inactive)

COc1cc2c(c3c1C=CCO3)C(=O)c1ccccc1C2=O
GI50 (UACC-62): 47.4 µM (inactive) | GI50 (HCT-15): 29.6 µM | GI50 (SW-620): 30.4 µM (inactive) | GI50 (SF-539): 36.1 µM (inactive) | GI50 (SF-268): 47.6 µM (inactive) | GI50 (KM12): 30.3 µM (inactive) | GI50 (HL-60): 19.3 µM (inactive) | GI50 (786-0): 57.7 µM (inactive) | GI50 (M14): 82 µM (inactive) | GI50 (NCI-H522): 29.7 µM (inactive) | GI50 (SNB-78): > 100 µM (inactive) | GI50 (KM-20L2): 59.4 µM (inactive) | GI50 (SF-295): > 100 µM (inactive) | GI50 (SK-MEL-28): > 100 µM (inactive) | GI50 (RXF 393): > 100 µM (inactive)

Nc1ccc(C(=O)N/C(=C\C=C\c2ccco2)c2nc3c(O)nc(S)nc3[nH]2)cc1
GI50 (UACC-62): > 10 µM (inactive) | GI50 (HCT-15): > 100 µM | GI50 (SW-620): > 100 µM (inactive) | GI50 (SF-539): > 100 µM (inactive) | GI50 (OVCAR-4): > 100 µM (inactive) | GI50 (SF-268): > 100 µM (inactive) | GI50 (KM12): > 100 µM (inactive) | GI50 (786-0): > 100 µM (inactive) | GI50 (M14): > 100 µM (inactive) | GI50 (NCI-H522): > 100 µM (inactive) | GI50 (SNB-78): > 100 µM (inactive) | GI50 (KM-20L2): 87.1 µM (inactive) | GI50 (SF-295): > 100 µM (inactive) | GI50 (SK-MEL-28): > 100 µM (inactive) | GI50 (RXF 393): > 100 µM (inactive)

CC1=CC(/C=C(\C)CCCc2ccoc2)C2(OC(=O)C(C)=C2O)[C@H]2C1CC[C@@H]2C (some centres not stated)
GI50 (UACC-62): 14.4 µM (inactive) | GI50 (HCT-15): 15.5 µM | GI50 (SW-620): 33.6 µM (inactive) | GI50 (SF-539): 17.5 µM (inactive) | GI50 (KM12): 31.8 µM (inactive) | GI50 (786-0): 14.6 µM (inactive) | GI50 (M14): 23.1 µM (inactive) | GI50 (NCI-H522): 13.9 µM (inactive) | GI50 (SNB-78): 30.5 µM (inactive) | GI50 (SF-295): 20.7 µM (inactive) | GI50 (SK-MEL-28): 27.6 µM (inactive) | GI50 (RXF 393): 18.3 µM (inactive)

CC(=O)Oc1c2c(c(O)c3ccccc13)C(n1cnc3c(ncn3C3OC(CO)C4OC(C)(C)OC43)c1=N)CCC2 (configuration not stated)
GI50 (UACC-62): 13.9 µM (inactive) | GI50 (HCT-15): 14.8 µM | GI50 (SW-620): 15.3 µM (inactive) | GI50 (SF-539): 18.2 µM (inactive) | GI50 (SF-268): 16.4 µM (inactive) | GI50 (KM12): 14.4 µM (inactive) | GI50 (HL-60): 4.49 µM (inactive) | GI50 (786-0): 14.5 µM (inactive) | GI50 (NCI-H522): 5.87 µM (inactive) | GI50 (SNB-78): 23 µM (inactive) | GI50 (KM-20L2): 21.6 µM (inactive) | GI50 (SF-295): 13.9 µM (inactive) | GI50 (SK-MEL-28): 17.5 µM (inactive) | GI50 (RXF 393): 18.3 µM (inactive)

O=C1NC2OC(CO)C(O)C(O)C2O1 (configuration not stated)
GI50 (UACC-62): > 100 µM (inactive) | GI50 (HCT-15): > 100 µM | GI50 (SW-620): > 100 µM (inactive) | GI50 (SF-539): > 100 µM (inactive) | GI50 (OVCAR-4): > 100 µM (inactive) | GI50 (SF-268): > 100 µM (inactive) | GI50 (KM12): > 100 µM (inactive) | GI50 (HL-60): > 100 µM (inactive) | GI50 (786-0): > 100 µM (inactive) | GI50 (M14): > 100 µM (inactive) | GI50 (NCI-H522): > 100 µM (inactive) | GI50 (SNB-78): > 100 µM (inactive) | GI50 (KM-20L2): > 100 µM (inactive) | GI50 (SF-295): > 100 µM (inactive) | GI50 (SK-MEL-28): > 100 µM (inactive)

COc1cc(C=O)cc(O)c1O
GI50 (UACC-62): 27.4 µM (inactive) | GI50 (HCT-15): > 100 µM | GI50 (SW-620): > 100 µM (inactive) | GI50 (SF-539): > 100 µM (inactive) | GI50 (SF-268): > 100 µM (inactive) | GI50 (KM12): > 100 µM (inactive) | GI50 (HL-60): 46.7 µM (inactive) | GI50 (786-0): > 100 µM (inactive) | GI50 (M14): > 100 µM (inactive) | GI50 (NCI-H522): 99.8 µM (inactive) | GI50 (SNB-78): > 100 µM (inactive) | GI50 (KM-20L2): > 100 µM (inactive) | GI50 (SF-295): > 100 µM (inactive) | GI50 (SK-MEL-28): > 100 µM (inactive) | GI50 (RXF 393): > 10 µM (inactive)

CCN(CC)CC(C)C(=O)/C=C/c1ccc(C)cc1 (configuration not stated)
GI50 (UACC-62): 3.3 µM (inactive) | GI50 (HCT-15): 2.53 µM | GI50 (SW-620): 1.57 µM (inactive) | GI50 (SF-539): 2.05 µM (inactive) | GI50 (OVCAR-4): 2.23 µM (inactive) | GI50 (SF-268): 2.1 µM (inactive) | GI50 (KM12): 0.502 µM (active) | GI50 (HL-60): 3.48 µM (inactive) | GI50 (786-0): 1.88 µM (inactive) | GI50 (M14): 2.2 µM (inactive) | GI50 (SNB-78): 4.59 µM (inactive) | GI50 (KM-20L2): 10 µM (inactive) | GI50 (SF-295): 15 µM (inactive) | GI50 (SK-MEL-28): 1.85 µM (inactive) | GI50 (RXF 393): 2.19 µM (inactive)

C[Si](C)(C)C1(Sc2ccccc2)SCCCS1
GI50 (UACC-62): 35 µM (inactive) | GI50 (HCT-15): 27.2 µM | GI50 (SW-620): 53.1 µM (inactive) | GI50 (SF-539): 24.9 µM (inactive) | GI50 (OVCAR-4): 57.1 µM (inactive) | GI50 (SF-268): 31.8 µM (inactive) | GI50 (KM12): 64.7 µM (inactive) | GI50 (HL-60): 12 µM (inactive) | GI50 (786-0): 46.5 µM (inactive) | GI50 (M14): 49.8 µM (inactive) | GI50 (NCI-H522): 17.9 µM (inactive) | GI50 (SNB-78): 51.8 µM (inactive) | GI50 (SF-295): 54.3 µM (inactive) | GI50 (SK-MEL-28): 43.3 µM (inactive) | GI50 (RXF 393): 32.5 µM (inactive)

O/N=C(\C(=N/O)Nc1ccc(-c2ccc(NC(=N/O)/C(=N\O)c3ccccc3)cc2)cc1)c1ccccc1
GI50 (UACC-62): 18.5 µM (inactive) | GI50 (HCT-15): 27.3 µM | GI50 (SW-620): 22.2 µM (inactive) | GI50 (SF-539): 18.9 µM (inactive) | GI50 (SF-268): 27.4 µM (inactive) | GI50 (KM12): 19 µM (inactive) | GI50 (HL-60): 27.9 µM (inactive) | GI50 (786-0): 21.5 µM (inactive) | GI50 (M14): 17.9 µM (inactive) | GI50 (NCI-H522): 17.8 µM (inactive) | GI50 (SNB-78): 30.8 µM (inactive) | GI50 (KM-20L2): 18.9 µM (inactive) | GI50 (SF-295): 18.6 µM (inactive)

CC(=O)NC(CCCN(Cc1ccccc1)C(=O)N(C)N=O)C(=O)NCc1ccccc1 (configuration not stated)
GI50 (UACC-62): > 100 µM (inactive) | GI50 (HCT-15): > 100 µM | GI50 (SW-620): > 100 µM (inactive) | GI50 (SF-539): > 100 µM (inactive) | GI50 (OVCAR-4): > 100 µM (inactive) | GI50 (SF-268): 95.3 µM (inactive) | GI50 (KM12): > 100 µM (inactive) | GI50 (786-0): > 100 µM (inactive) | GI50 (M14): > 100 µM (inactive) | GI50 (NCI-H522): 37.1 µM (inactive) | GI50 (SNB-78): > 100 µM (inactive) | GI50 (KM-20L2): > 100 µM (inactive) | GI50 (SF-295): > 100 µM (inactive) | GI50 (SK-MEL-28): > 100 µM (inactive) | GI50 (RXF 393): > 100 µM (inactive)

Cc1cccc(C(C)(C)C)c1NC(=O)CC1Sc2ccccc2NC1=O (configuration not stated)
GI50 (UACC-62): 68.7 µM (inactive) | GI50 (SW-620): 17.3 µM (inactive) | GI50 (SF-539): > 100 µM (inactive) | GI50 (OVCAR-4): > 100 µM (inactive) | GI50 (SF-268): 87.9 µM (inactive) | GI50 (KM12): 95.1 µM (inactive) | GI50 (HL-60): 46.1 µM (inactive) | GI50 (786-0): 46 µM (inactive) | GI50 (M14): > 100 µM (inactive) | GI50 (NCI-H522): > 100 µM (inactive) | GI50 (KM-20L2): > 100 µM (inactive) | GI50 (SF-295): > 100 µM (inactive) | GI50 (SK-MEL-28): > 100 µM (inactive)
